Here are results for 15 compounds from patent publication US8859573B2, “Pyrimidinone and pyridinone compounds for use in the treatment of diseases or conditions mediated by Lp-PLA2” (Glaxo Group Limited, priority 2010, dated 2014).

One experiment has as its target T1, Lp-PLA2 from plasma (Homo sapiens, UniProt Q13093).
T1 construct: from tissue; host or cells: pooled human plasma
T1 sequence (Q13093 22-441): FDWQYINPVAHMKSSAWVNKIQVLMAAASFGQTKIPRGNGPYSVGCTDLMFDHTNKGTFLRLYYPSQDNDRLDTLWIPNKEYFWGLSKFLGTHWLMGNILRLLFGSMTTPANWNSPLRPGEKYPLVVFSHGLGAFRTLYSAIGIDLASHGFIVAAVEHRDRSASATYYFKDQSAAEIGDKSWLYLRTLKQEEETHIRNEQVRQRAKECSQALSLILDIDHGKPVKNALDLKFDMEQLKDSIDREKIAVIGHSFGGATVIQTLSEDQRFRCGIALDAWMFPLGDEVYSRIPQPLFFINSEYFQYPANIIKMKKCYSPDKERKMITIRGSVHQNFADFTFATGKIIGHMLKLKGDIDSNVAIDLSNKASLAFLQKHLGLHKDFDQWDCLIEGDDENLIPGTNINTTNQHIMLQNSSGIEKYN
The experiment can be described thus: Lp-PLA2 human plasma assay (Thio-PAF assay). The conditions noted are these: pooled human plasma; read-out: pIC50 values in the thio-PAF assay (converted). The class given is biochemical. The text has this:
(3) Lipoprotein-Associated Phospholipase A2 (Lp-PLA2) Human Plasma Assay (Also Referred to as “Thio-PAF Assay”)
The human plasma assay utilizes a thioester analog of PAF (phosphatidylcholine), where hydrolysis yields to the formation of a phospholipid containing a free thiol group. The amount of thiol is quantitated continuously by reacting with CPM (7-diethylamino-3-(4′-maleimidylphenyl)-4-methylcoumarin), a maleimide which increases in fluoresence after Michael addition of thiols. This assay may detect the activity of Lp-PLA2 from plasma, as determined by specific inhibition by Lp-PLA2 inhibitors.
The thio-PAF assay was run as a quenched 15 μL assay. Compounds source plate was prepared by making 1:3 (by volume) serial dilution of the compounds into pure DMSO on 384-well microplate. 0.01 μL of compounds on compound source plate were transferred to 384 well Greiner 784076 (black) low-volume plates by ECHO liquid dispenser. 8 μL pooled human plasma, which was previously aliquoted and frozen, was added. Plates were centrifuged for 10 sec at 500 rpm. After 30 minutes preincubation, 2 μL of substrate (2.5 mM thio-PAF, 3.2 mM NEM (N-ethylmaleimide) [made fresh daily in DMSO], and 32 μM CPM [from a DMSO stock] in assay buffer of 50 mM HEPES, pH7.4, 150 mM NaCl, 1 mM CHAPS was added to 384 well Greiner 784076 (black) low-volume plates by BRAVO liquid handling station. Plates were centrifuged for 10 sec at 500 rpm. Plate was covered to protect from light and incubated for 2 min at room temperature. Reaction was quenched with 5 μL of 5% aqueous trifluoroacetic acid (TFA). Plates were covered to protect from light and incubated for 40 min at room temperature. Plates were read at ex: 380/em: 485 using-Envision microplate reader. PIC50 data, curve and QC analysis was conducted by using XLFit module in Excel.

For experiment [1], the target named is T2, recombinant human Lp-PLA2 (Homo sapiens, UniProt Q13093).
T2 sequence (Q13093 22-441): T1 sequence (Q13093 22-441)
The experiment can be described thus: Recombinant human Lp-PLA2 assay (rhLp-PLA2, PED6 assay). The note with it: upper limit for pIC50 in this assay is 9.3. Format: biochemical. The text has this:
(1) Recombinant Human Lp-PLA2 Assay (rhLp-PLA2) (Also Referred to as “PED6” Assay)
N-((6-(2,4-dinitrophenyl)amino)-hexanoyl)-2-(4,4-difluoro-5,7-dimethyl-4-bora-3a,4a-diaza-s-indacene-3-pentanoyl)-1-hexadecanoyl-sn-glycero-3-phosphoethanolamine, triethylammonium salt (PED6) is a commercially available fluorescently-labelled phospholipid, which is commercially available from Molecular Probes. There is a quenching para-nitro phenyl (PNP) group in the sn3 position and a Bodipy fluorescein (FL) group in the sn2 position. Upon cleavage with Lp-PLA2, the Bodipy F1 group is liberated and then may result in an increase in fluorescence. Inhibitors of Lp-PLA2 therefore prevent this cleavage and no fluorescent increase is observed.
The PED6 assay was run as an […] 10 μL assay. Compounds source plate was prepared by making 1:3 (by volume) serial dilution of the compounds into pure DMSO on 384-well microplate. Then, 0.01 μL of compounds on compound source plate were transferred into 384 well Greiner 784076 (black) plates by ECHO liquid dispenser. 5 μL of recombinant human Lp-PLA2 enzyme (2 nM rhLp-PLA2 in assay buffer of 50 mM HEPES, pH7.4, 150 mM NaCl, 1 mM CHAPS) was added to each well of the plate with compounds. Plates were centrifuged for 10 sec at 500 rpm. After 30 minutes preincubation, […] substrate (4 μM PED6 [from 5 mM DMSO stock] in assay buffer of 50 mM HEPES, pH7.4, 150 mM NaCl, 1 mM CHAPS) was added to 384 well Greiner 784076 (black) plates. Plates were centrifuged for 10 sec at 500 rpm. Plate was covered to protect from light and incubated for 20 min at room temperature. Plates were read for fluorescence intensity at ex: 480/em: 540 using ViewLux microplate imager. PIC50 data, curve and QC analysis was conducted by using XL fit module in Excel.

The structures appear in SMILES notation. Where a name gives a salt, the structure may show the parent alone. Bounds are passed on as bounds.

Regarding `Cn1cc(Cn2cc(Cl)c(OCCc3cnc(Oc4ccc(Cl)c(C(F)(F)F)c4)c(F)c3)nc2=O)cn1` [Example 31, 5-Chloro-4-(2-(6-(4-chloro-3-(trifluoromethyl)phenoxy)-5-fluoropyridin-3-yl)ethoxy)-1-((1-methyl-1H-pyrazol-4-yl)methyl)pyrimidin-2(1H)-one], the IC50 was not above 100 nM at Lp-PLA2 from plasma and not above 1 nM in experiment [1].
For `COc1ncc(Cn2cc(Cl)c(OCCc3cnc(Oc4ccc(Cl)c(C(F)(F)F)c4)c(F)c3)nc2=O)cn1` [Example 32, 5-chloro-4-(2-(6-(4-chloro-3-(trifluoromethyl)phenoxy)-5-fluoropyridin-3-yl)ethoxy)-1-((2-methoxypyrimidin-5-yl)methyl)pyrimidin-2(1H)-one] the same measures were not above 100 nM and not above 1 nM.
For the compound `Cn1cc(Cn2cc(F)c(OCCc3cnc(Oc4ccc(Cl)c(C(F)(F)F)c4)c(F)c3)nc2=O)cn1` [Example 33, 4-(2-(6-(4-chloro-3-(trifluoromethyl)phenoxy)-5-fluoropyridin-3-yl)ethoxy)-5-fluoro-1-((1-methyl-1H-pyrazol-4-yl)methyl)pyrimidin-2(1H)-one], the IC50 at Lp-PLA2 from plasma is not above 100 nM; in experiment [1], not above 1 nM.
For `Cn1cc(Cn2cc(F)c(OCCc3ccc(Oc4ccc(C(F)(F)F)nc4)c(F)c3)nc2=O)cn1` [Example 41, 5-fluoro-4-(3-fluoro-4-((6-(trifluoromethyl)pyridin-3-yl)oxy)phenethoxy)-1-((1-methyl-1H-pyrazol-4-yl)methyl)pyrimidin-2(1H)-one], the IC50 at Lp-PLA2 from plasma was not above 100 nM; in experiment [1] it was not above 1 nM.
With `COc1ncc(Cn2cc(Cl)c(OCCc3ccc(Cc4ccc(Cl)c(C(F)(F)F)c4)cc3)nc2=O)cn1` [Example 45, 5-chloro-4-(4-(4-chloro-3-(trifluoromethyl)benzyl)phenethoxy)-1-((2-methoxypyrimidin-5-yl)methyl)pyrimidin-2(1H)-one], the IC50 at Lp-PLA2 from plasma was not above 100 nM; in experiment [1], not above 1 nM.
Take `Cn1cc(Cn2cc(F)c(OCCc3ccc(Cc4ccc(Cl)c(C(F)(F)F)c4)cc3)nc2=O)cn1` [Example 46, 4-(4-(4-chloro-3-(trifluoromethyl)benzyl)phenethoxy)-5-fluoro-1-((1-methyl-1H-pyrazol-4-yl)methyl)pyrimidin-2(1H)-one]: the IC50 on Lp-PLA2 from plasma was not above 100 nM; in experiment [1], not above 1 nM.
Regarding `COc1ncc(Cn2cc(F)c(OCCc3ccc(Cc4ccc(Cl)c(C(F)(F)F)c4)cc3)nc2=O)cn1` [Example 47, 4-(4-(4-chloro-3-(trifluoromethyl)benzyl)phenethoxy)-5-fluoro-1-((2-methoxypyrimidin-5-yl)methyl)pyrimidin-2(1H)-one], the IC50 is not above 100 nM at Lp-PLA2 from plasma and not above 1 nM in experiment [1].
As for `Cn1cc(Cn2cc(Cl)c(OCc3ccc(Oc4ccc(F)c(F)c4)c(F)c3)nc2=O)cn1` [Example 53, 5-chloro-4-((4-(3,4-difluorophenoxy)-3-fluorobenzyl)oxy)-1-((1-methyl-1H-pyrazol-4-yl)methyl)pyrimidin-2 (1H)-one], the IC50 on Lp-PLA2 from plasma was not above 100 nM; in experiment [1] it was not above 1 nM.
As for `Cn1cc(Cn2cc(F)c(OCCc3ccc(Oc4ccc(F)c(F)c4)c(F)c3)nc2=O)cn1` [Example 59, 4-(4-(3,4-difluorophenoxy)-3-fluorophenethoxy)-5-fluoro-1-((1-methyl-1H-pyrazol-4-yl)methyl)pyrimidin-2(1H)-one, trifluoroacetic acid salt], the figures for the IC50 (at Lp-PLA2 from plasma; in experiment [1]) were not above 100 nM and not above 1 nM, respectively.
Turning to `Cc1cn(Cc2cnn(C)c2)c(=O)nc1OCCc1ccc(Oc2ccc(Cl)c(C(F)(F)F)c2)cc1` [Example 66, 4-(4-(4-chloro-3-(trifluoromethyl)phenoxy)phenethoxy)-5-methyl-1-((1-methyl-1H-pyrazol-4-yl)methyl)pyrimidin-2 (1H)-one], the IC50 on Lp-PLA2 from plasma is not above 100 nM; in experiment [1], not above 1 nM.
For `Cc1cn(Cc2cnn(C)c2)c(=O)nc1OCCc1ccc(Oc2ccc(F)c(F)c2)nc1` [Example 67, 4-(2-(6-(3,4-difluorophenoxy)pyridin-3-yl)ethoxy)-5-methyl-1-((1-methyl-1H-pyrazol-4-yl)methyl)pyrimidin-2(1H)-one], the figures for the IC50 (at Lp-PLA2 from plasma; in experiment [1]) were not above 1000 nM and more than 10 nM, respectively.
With `Cc1cn(Cc2cnn(C)c2)c(=O)nc1OCc1ccc(Oc2cccc(C(F)(F)F)c2)c(C#N)c1` [Example 69, 5-(((5-methyl-1-((1-methyl-1H-pyrazol-4-yl)methyl)-2-oxo-1,2-dihydropyrimidin-4-yl)oxy)methyl)-2-(3-(trifluoromethyl)phenoxy)benzonitrile], the IC50 at Lp-PLA2 from plasma was not above 100 nM; in experiment [1], not above 1 nM.
In the case of `COc1ncc(Cn2cc(C)c(OCCc3ccc(Oc4ccc(F)c(F)c4)nc3)nc2=O)cn1` [Example 70, 4-(2-(6-(3,4-difluorophenoxy)pyridin-3-yl)ethoxy)-1-((2-methoxypyrimidin-5-yl)methyl)-5-methylpyrimidin-2(1H)-one], the IC50 is not above 1000 nM on Lp-PLA2 from plasma and more than 10 nM in experiment [1].
As for `Cc1cn(Cc2cnn(C)c2)c(=O)nc1OCc1ccc(Oc2ccc(F)c(F)c2)c(C#N)c1` [Example 71, 2-(3,4-difluorophenoxy)-5-(((5-methyl-1-((1-methyl-1H-pyrazol-4-yl)methyl)-2-oxo-1,2-dihydropyrimidin-4-yl)oxy)methyl)benzonitrile], the IC50 is not above 100 nM at Lp-PLA2 from plasma and not above 1 nM in experiment [1].
Consider `Cc1cn(Cc2cnn(C)c2)c(=O)nc1OCc1ccc(Oc2ccc(F)c(F)c2)c(F)c1` [Example 72, 4-((4-(3,4-difluorophenoxy)-3-fluorobenzyl)oxy)-5-methyl-1-((1-methyl-1H-pyrazol-4-yl)methyl)pyrimidin-2(1H)-one], for which the IC50 is not above 100 nM on Lp-PLA2 from plasma and not above 1 nM in experiment [1].
